Legend:
[1] = system: 43 human cancer cell lines (breast, lung, prostate, ovarian or CNS); test: CellTiter-Blue cell viability assay, IC70, panel of human cancer cell lines; assay type: cell-based; details: 24 h treatment, then 48 h without plinabulin
From the text: Plinabulin is a tubulin targeted agent that binds near the colchicine site in β-tubulin and is being tested in a Phase 3 clinical study for the treatment of non-small cell lung cancer. The colchicine site is distinct from the binding site of taxanes (e.g. Paclitaxel and docetaxel), and binding site and other differences between tubulin targeted agents are often associated with differing effects on biological functions, disease outcomes and safety profiles. Additional indications are being considered for plinabulin so a model for selecting especially responsive patients would be of significant value. As a first step towards building this model, the in vitro activity of Plinabulin against 43 human cancer cell lines (breast, lung, prostate, ovarian or CNS), previously characterized for mRNA expression with the Affymetrix HGU133 Plus 2.0 array, was evaluated. Although screening for in vitro anticancer activity is typically performed with constant treatment of the agent for 48-72 hours, cells were treated for only 24 hours with plinabulin and then cultured for another 48 hours without plinabulin.
Typically anticancer activity is judged at the 50% effect level (50% reduction in viable tumor cells), but viable cell concentration are quantified here with a Cell Titer-Blue Assay to find the concentration causing a 70% reduction in the quantity of viable tumor cells (IC70). […]

[2] = system: CAL-51, HS578T, JIMT-1, MCF10A, MX1; test: CellTiter-Blue cell viability assay, breast cell lines (Active group); assay type: cell-based, human; parameters: key: Active: active (IC70<1 µM); Inactive: inactive (IC70>1 µM, and usually >10 µM); details: Breast: CAL-51, HS578T, IC70 class, 24 h treatment + 48 h compound-free
Protocol: (§1) Working stock solution of the test compounds (Plinabulin, Docetaxel and Paclitaxel) were prepared in DMSO at a concentration of 3.14 (Plinabulin) or 3.3 mM (Docetaxel and Paclitaxel), and small aliquots were stored at −20° C. On each day of an experiment, a frozen aliquot of the working stock solutions was thawed and stored at room temperature prior to and during treatment. All liquid handling steps were done by the Tecan Freedom EVO 200 platform. First, serial half-log dilutions of the DMSO working stock solution were made in DMSO. The DMSO dilutions were then diluted 1:22 into cell culture medium in an intermediate dilution plate. Finally, 10 μl taken from the intermediate dilution plate was transferred to 140 μl/well of the final assay plate. […] Briefly, cells were harvested from exponential phase cultures, counted and plated in 96-well flat-bottom microtiter plates at a cell density of 4,000 to 60,000 cells/well dependent on the cell line's growth rate. […] After the initial application of the compounds for 24 hours, the compound-containing media was exchanged to media without compounds and incubation was continued for a further 48 hours until read-out. […] Following incubation with CellTiter-Blue® reagent for up to four hours, fluorescence (FU) was measured by using the Enspire Multimode Plate Reader (excitation λ=570 nm, emission λ=600 nm). […]

[3] = system: A-172, SF-539, SNB-78, U-251, U-87MG; test: CellTiter-Blue cell viability assay, CNS cell lines (Active group); assay type: cell-based, human; parameters: key: Active: active (IC70<1 µM); Inactive: inactive (IC70>1 µM, and usually >10 µM); details: CNS: A-172, SF-539, SNB-78, U-251, U-87MG; IC70 class, 24 h treatment + 48 h compound-free
Protocol: as §1

PC-3 = test: CellTiter-Blue cell viability assay, prostate cell line (Inactive group); assay type: cell-based, human; parameters: key: Active: active (IC70<1 µM); Inactive: inactive (IC70>1 µM, and usually >10 µM); details: Prostate: PC-3; IC70 class, 24 h treatment + 48 h compound-free
Protocol: as §1

[4] = system: LXFA289, LXFA526, LXFA629, LXFA983, A549, HOP-62, NCI-H322M, NCI-H226, SK-MES-1, A427, NCI-H1299, H2171, SCLC-21H; test: CellTiter-Blue cell viability assay, lung cell lines (Inactive group); assay type: cell-based, human; parameters: key: Active: active (IC70<1 µM); Inactive: inactive (IC70>1 µM, and usually >10 µM); details: Lung: LXFA289, LXFA526, LXFA629, LXFA983, A549, HOP-62, NCI-H322M, IC70 class, 24 h treatment + 48 h compound-free
Protocol: as §1

[5] = system: A2780, EFO-21, EFO-27, OVCAR3; test: CellTiter-Blue cell viability assay, ovarian cell lines (Active group); assay type: cell-based, human; parameters: key: Active: active (IC70<1 µM); Inactive: inactive (IC70>1 µM, and usually >10 µM); details: Ovarian: A2780, EFO-21, EFO-27, OVCAR3; IC70 class, 24 h treatment + 48 h compound-free
Protocol: as §1

[6] = system: 22Rv1, DU-145, LNCaP, PC-3M; test: CellTiter-Blue cell viability assay, prostate cell lines (Active group); assay type: cell-based, human; parameters: key: Active: active (IC70<1 µM); Inactive: inactive (IC70>1 µM, and usually >10 µM); details: Prostate: 22Rv1, DU-145, LNCaP, IC70 class, 24 h treatment + 48 h compound-free
Protocol: as §1

[7] = system: Calu-, LXFL1121, NCI-H460; test: CellTiter-Blue cell viability assay, lung cell lines (Active group); assay type: cell-based, human; parameters: key: Active: active (IC70<1 µM); Inactive: inactive (IC70>1 µM, and usually >10 µM); details: IC70 class, 24 h treatment + 48 h compound-free
Protocol: as §1

[8] = system: MAXFTN401, BT-474, HCC-1937, MCF7, MDA-MB-231; test: CellTiter-Blue cell viability assay, breast cell lines (Inactive group); assay type: cell-based, human; parameters: key: Active: active (IC70<1 µM); Inactive: inactive (IC70>1 µM, and usually >10 µM); details: Breast: MAXFTN401, BT-474, HCC-1937, MCF7, MDA-MB-231; IC70 class, 24 h treatment + 48 h compound-free
Protocol: as §1

OVXF899, OVXF1023 = test: CellTiter-Blue cell viability assay, ovarian cell lines (Inactive group); assay type: cell-based, human; parameters: key: Active: active (IC70<1 µM); Inactive: inactive (IC70>1 µM, and usually >10 µM); details: IC70 class, 24 h treatment + 48 h compound-free
Protocol: as §1

CC(C)(C)c1[nH]cnc1/C=c1\[nH]c(=O)/c(=C/c2ccccc2)[nH]c1=O [Plinabulin]
IC70 (concentration causing a 70% reduction in the quantity of viable tumor cells) ([1]; 21 cell lines of the Active category): < 1.0 µM | IC70 (concentration causing a 70% reduction in the quantity of viable tumor cells) ([1]; 91% of the cell lines of the Inactive category): > 9.5 µM | Plinabulin Activity [2]: Active | Plinabulin Activity [3]: Active | Plinabulin Activity (PC-3): Inactive | Plinabulin Activity [4]: Inactive | Plinabulin Activity [5]: Active | Plinabulin Activity [6]: Active | Plinabulin Activity [7]: Active | Plinabulin Activity [8]: Inactive | Plinabulin Activity (OVXF899, OVXF1023): Inactive

Reference: patent publication US20230035763A1, “METHODS OF TREATING CANCER USING TUBULIN BINDING AGENTS” (BeyondSpring Pharnaceuticals, Inc., priority 2018, published 2023)
